Laboratory results as given in patent US20260224538A1 (Purdue Research Foundation, priority 2023, published 2026).

Assays:
[1] = tested on: M17D neuroblastoma cells that express inclusion-prone αS-3K::YFP; assay: α-Syn inclusion-forming neuroblastoma cell experiment; type: cell-based; conditions: t=96 hrs
Procedure: α-Syn (or αS) inclusion-forming neuroblastoma cell experiment. Dox-inducible neuroblastoma cells M17D-TR/αS-3K::YFP have been used previously. 96-well plates were used with a cellular density of 30,000 cells per well. Compounds were added […], and αS-3K::YFP transgene expression was induced […]. Induction was done by adding 1 μg per mL (final concentration) dox to culture media. Cells were incubated in the Incucyte Zoom 2000 platform (Essen Biosciences), and images (green, bright field) were taken continuously. Endpoint analysis of inclusion formation or growth was performed 48 hours after induction (96 hours after plating). The Incucyte processing definition ‘Inclusions’ was created as follows: Parameters, Fixed Threshold, Threshold (GCU) 50; Edge Split On, Edge Sensitivity 100; Cleanup, Hole Fill (μm^2): 10, Adjust Size (pixels): 0; Filters, Area (μm^2): max 50, Mean Intensity: min 60, Integrated Intensity: min 2000. Cell confluence was measured by the processing definition ‘Cells’: Parameters, Segmentation Adjustment 0.7; Cleanup, all parameters set to 0; Filters, Area (μm^2): min 345.00. As described previously for the evaluation of protein expression by SDS-PAGE and Western Blotting in the LiCor system, αS-specific monoclonal antibody 4B12 (Thermofisher, Waltham, MA; 1:1000) and a polyclonal antibody to GAPDH (Sigma-Aldrich, St. Louis, MO, G9545; 1:5000) were used.

[2] = target: T1, Aβ1-42 (Homo sapiens, UniProt P05067); assay: ThT fluorescence assay of Aβ1-42 fibril formation; type: biochemical; conditions: screen on prone-to-aggregate proteins (FIG. 2A, FIG. 4A); Aβ 7 μM
T1 construct: α-syn, Aβ1-40, Aβ1-42 were procured from rPeptide; purchased rPeptide
T1 sequence (P05067 672-713 limits assumed): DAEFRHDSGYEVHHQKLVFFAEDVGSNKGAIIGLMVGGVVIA
Procedure: (§1) Thioflavin-T (ThT) fluorescence assays. Thioflavin-T (ThT) fluorescence assays were used to monitor fibril formation of recombinant Ap (fragments 1-40 and 1-42), recombinant α-syn, recombinant tau isoform 2N4R, synthetic IAPP, and synthetic TTR peptides treated with BTA and its derivatives. The IAPP ThT assay was performed in 10 mM PBS (pH 7.4) at a final concentration of 10 μM for both IAPP and ThT as published previously. Aβ fragments 1-40 and 1-42 were tested at 7 μM in 10 mM of PBS using ThT at a final concentration of 20 μM. Kinetics of α-syn fibrillization were performed as published previously.^36-37 TTR fragment kinetics of fibril formation were assessed at 10 μM in 100 mM sodium acetate buffer supplemented with 100 mM KCl and 1 mM ethylenediaminetetraacetic acid (EDTA) (pH 4) with 20 μM ThT. The fluorescence emission experiments were performed with the excitation and emission wavelengths set at 440 and 485 nm, respectively, with a Synergy HT multi-mode microplate reader (BioTek, Winooski, VT). Samples were measured in three replicates, and the experiments were repeated three times using at least two different stock solutions. For each time point, arbitrary units of fluorescence were calculated from the mean values normalized against the maximum value in each completed assay. The lag time for each condition was calculated as previously described. All results contained in histograms were presented as mean±SEM. Data were analyzed by the one-way analysis of variance with Dunnett's multiple comparisons between controls and compounds. Differences were considered statistically significant at p<0.05.

[3] = target: T2, tau isoform 2N4R (Homo sapiens, UniProt P10636); assay: TEM of tau isoform 2N4R fibrils; type: biochemical; conditions: compound 100 μM, tau 10 μM, molar ratio 1:10
T2 construct: made in house; host or cells: E. coli BL21(DE3)
T2 sequence (P10636 1-441 isoform P10636-8): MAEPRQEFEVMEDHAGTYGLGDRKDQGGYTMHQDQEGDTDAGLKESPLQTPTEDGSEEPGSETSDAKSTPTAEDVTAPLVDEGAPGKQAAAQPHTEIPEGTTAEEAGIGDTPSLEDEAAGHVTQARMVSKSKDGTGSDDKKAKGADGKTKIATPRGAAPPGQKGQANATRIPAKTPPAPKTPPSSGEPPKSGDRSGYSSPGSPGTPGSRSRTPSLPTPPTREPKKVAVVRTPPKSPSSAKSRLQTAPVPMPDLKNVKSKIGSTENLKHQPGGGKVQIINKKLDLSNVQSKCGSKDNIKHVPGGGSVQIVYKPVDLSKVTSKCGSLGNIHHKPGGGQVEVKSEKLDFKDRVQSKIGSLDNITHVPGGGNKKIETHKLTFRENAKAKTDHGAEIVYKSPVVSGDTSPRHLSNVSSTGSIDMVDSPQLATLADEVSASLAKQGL
Procedure: Transmission electron microscopy (TEM). After performing analysis with ThT fluorescence assay, TEM was utilized to detect fibril formation. A volume of 10 μL was applied to a 400-mesh Formvar-carbon-coated copper grid (Electron Microscopy Sciences, Hatfield, PA). The grids were incubated for 1 minute and washed three times with distilled water. They were carefully air-dried and incubated for 1 minute in a fresh solution of 1% uranyl acetate. Samples were air-dried and observed using a transmission microscope. Visualization of the grids was performed with TEM (JEOL 1400 Flash, Japan). Acquisition of pictures was performed with settings of accelerating voltage of 100 kV and magnification of 25 k and/or 40 k.

[4] = target: T3, TTR101-125 (Homo sapiens, UniProt P02766); assay: ThT fluorescence assay of TTR101-125 fibril formation; type: biochemical; conditions: screen on prone-to-aggregate proteins (FIG. 4A)
T3 construct: TTR fragments 1-25, 26-50, 51-75, 76-100, 81-105, 101-125, and 101-125 were obtained from GenScript; purchased GenScript; host or cells: synthetic peptide
Procedure: as §1

Nc1nsc2ccc([N+](=O)[O-])cc12 [A, 5-nitro-1,2-benzothiazol-3-amine] was tested, and the cell confluence ([1]; different concentrations) was “without any effect on the cell confluence”, the “number of αS-3K::YFP inclusions” value ([1]; different concentrations, vs 0.1% DMSO) was “reduced the number of inclusions in a dose-dependent manner” and the “concentration from which the number of inclusions was reduced” value [1] was 10 µM. The “thioflavin T fluorescence intensity, Aβ1-42” value [2] was 27.5±4%, the “tau isoform 2N4R fibrils by TEM” value [3] was “clear effect in reducing α-syn and tau fibrillization” and the “thioflavin T fluorescence intensity, TTR101-125” value [4] was “significantly more effective at preventing the aggregation”.
